US10022359B2, “1,9-diazaspiro undecane compounds having multimodal activity against pain” (LABORATORIOS DEL DR. ESTEVE S.A., priority 2014, dated 2018)

These molecules were tested against human σ1 receptor and human μ-opioid receptor (assay: Human σ1 receptor and human μ-opioid receptor radioligand assays (dual binding)). Details: combined class for Ki-μ ([3H]-DAMGO, transfected CHO-K1 membranes) and Ki-σ1 ([3H](+)-pentazocine, transfected HEK-293 membranes).
For `O=C(c1ccccn1)N1CCOCC12CCN(CCc1ccccc1)CC2` [Example 11, (9-phenethyl-4-oxa-1,9-diazaspiro[5.5]undecan-1-yl)(pyridin-2-yl)methanone], the Ki was ≥ 500 nM. In the case of `O=C(Cc1ccccn1)N1CCOCC12CCN(CCc1ccccc1)CC2` [Example 17, 1-(9-phenethyl-4-oxa-1,9-diazaspiro[5.5]undecan-1-yl)-2-(pyridin-2-yl)ethanone], the Ki is reported as ≥ 500 nM. For `O=C(c1cncs1)N1CCOCC12CCN(CCc1ccccc1)CC2` [Example 20, (9-phenethyl-4-oxa-1,9-diazaspiro[5.5]undecan-1-yl)(thiazol-5-yl)methanone], the Ki was ≥ 500 nM. In the case of `O=C(Cc1cccnc1)N1CCOCC12CCN(CCc1ccccc1)CC2` [Example 22, 1-(9-phenethyl-4-oxa-1,9-diazaspiro[5.5]undecan-1-yl)-2-(pyridin-3-yl)ethanone], the Ki is reported as ≥ 500 nM. For `O=C(c1ccncc1)N1CCOCC12CCN(CCc1ccccc1)CC2` [Example 13, (9-phenethyl-4-oxa-1,9-diazaspiro[5.5]undecan-1-yl)(pyridin-4-yl)methanone], the Ki was ≥ 500 nM. For `O=C(CN1CCC2(CC1)COCCN2C(=O)c1ccccc1)c1ccccc1` [Example 45, 2-(1-benzoyl-4-oxa-1,9-diazaspiro[5.5]undecan-9-yl)-1-phenylethanone], the Ki was ≥ 500 nM. In the case of `O=C(c1ccccc1)N1CCOCC12CCN(CC(O)c1ccccc1)CC2` (stereo not shown) [Example 51, (9-(2-hydroxy-2-phenylethyl)-4-oxa-1,9-diazaspiro[5.5]undecan-1-yl)(phenyl)methanone], the Ki is reported as ≥ 500 nM. For `O=C(Cc1ccncc1)N1CCOCC12CCN(CCc1ccccc1)CC2` [Example 19, 1-(9-phenethyl-4-oxa-1,9-diazaspiro[5.5]undecan-1-yl)-2-(pyridin-4-yl)ethanone], the Ki was ≥ 500 nM. For `O=C(c1cscn1)N1CCOCC12CCN(CCc1ccccc1)CC2` [Example 16, (9-phenethyl-4-oxa-1,9-diazaspiro[5.5]undecan-1-yl)(thiazol-4-yl)methanone], the Ki was ≥ 500 nM. In the case of `O=C(c1cccnc1)N1CCOCC12CCN(CCc1ccccc1)CC2` [Example 14, (9-phenethyl-4-oxa-1,9-diazaspiro[5.5]undecan-1-yl)(pyridin-3-yl)methanone], the Ki is reported as ≥ 500 nM. With `Fc1cnccc1CN1CCOCC12CCN(CCc1ccccc1)CC2` [Example 31, 1-((3-fluoropyridin-4-yl)methyl)-9-phenethyl-4-oxa-1,9-diazaspiro[5.5]undecane] the Ki was ≥ 500 nM. For `O=[N+]([O-])c1cccc(CCN2CCC3(CC2)COCCN3c2ccccc2)c1` [Example 41, 9-(3-nitrophenethyl)-1-phenyl-4-oxa-1,9-diazaspiro[5.5]undecane], the Ki was ≥ 500 nM. `Nc1cccc(CCN2CCC3(CC2)COCCN3c2ccccc2)c1` [Example 50, 3-(2-(1-phenyl-4-oxa-1,9-diazaspiro[5.5]undecan-9-yl)ethyl)aniline] was tested, and the Ki was ≥ 500 nM.
